Measurements reported in patent publication US9926299B2, “Inhibitors of bruton's tyrosine kinase” (Centaurus BioPharma Co., Ltd., priority 2012, dated 2018).

Tests used:
Ramos cells = assay: BCR-induced calcium flux fluorescence-based assay in Ramos cells; conditions: Ramos cells stimulated with goat anti-human IgM antibody; read-out: Ramos Cell Ca Flux IC50
Experimental: Calcium flux fluorescence-based assays were performed using Fluo-4 Direct™ Calcium Assay Kits (purchased from Invitrogen) in a FlexStation III (purchased from Molecular Devices) according to manufacturer instructions. In brief, actively growing Romas cells in RPM1-1640 medium (purchased from Invitrogen) supplemented with 10% FBS (purchased from Hyclone) were washed and re-plated in low serum medium at approximately 1×10^5 cells per 45 μL per well in a 96-well plate (purchased from Corning), then added 45 μL of dye (purchased from Invitrogen) and incubated at 37 degree for 1 hour. Compounds to be assayed were dissolved and 3-fold serially diluted in DMSO and then diluted by 100 times in low serum medium. Then 10 μL of the diluted mixture were added to the above 96-well plate (final DMSO concentration was 0.1%) and incubated at 37 degree in 5% CO2 incubator for 0.5 hour. The compound-treated cells were stimulated with a goat anti-human IgM antibody (10 μg/ml; purchased from SouthernBiotech) and read in the FlexStation III using a λEx=494 nM and […] for 90 seconds. The relative fluorescence unit (RFU) and the IC50 were recorded and analyzed using a GraphPad Prism 5 (GraphPad Software).

BTK kinase = BTK kinase (Homo sapiens (Human), UniProt Q06187); assay: Btk kinase enzymatic assay (HTRF); assay type: biochemical; conditions: ATP at Km
BTK kinase, sequence (Q06187 whole entry): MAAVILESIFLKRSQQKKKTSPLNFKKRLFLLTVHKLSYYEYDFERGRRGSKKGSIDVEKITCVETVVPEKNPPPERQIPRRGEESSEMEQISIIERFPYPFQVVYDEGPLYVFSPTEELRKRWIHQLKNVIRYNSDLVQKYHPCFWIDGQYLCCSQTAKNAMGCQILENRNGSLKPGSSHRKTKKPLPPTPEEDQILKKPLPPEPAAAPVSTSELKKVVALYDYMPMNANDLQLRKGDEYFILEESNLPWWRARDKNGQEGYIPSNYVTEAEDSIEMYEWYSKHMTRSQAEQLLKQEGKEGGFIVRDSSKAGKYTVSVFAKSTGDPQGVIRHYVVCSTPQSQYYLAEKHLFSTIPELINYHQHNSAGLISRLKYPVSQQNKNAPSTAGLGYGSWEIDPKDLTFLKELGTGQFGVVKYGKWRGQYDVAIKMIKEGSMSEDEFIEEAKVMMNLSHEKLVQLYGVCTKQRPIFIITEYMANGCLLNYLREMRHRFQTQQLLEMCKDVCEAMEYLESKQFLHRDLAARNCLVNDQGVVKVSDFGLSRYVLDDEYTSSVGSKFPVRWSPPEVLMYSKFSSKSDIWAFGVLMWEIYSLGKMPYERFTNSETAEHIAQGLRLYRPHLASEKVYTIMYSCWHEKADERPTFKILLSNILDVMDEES
Experimental: Btk kinase activity was determined using a Homogeneous Time-Resolved Fluorescence (HTRF) methodology (Cisbio). […] The mixture was centrifuged and incubated for 5 min. […] For each compound, enzyme activity was measured at various concentrations of compound, and IC50s were obtained by GraFit Software 6.0 (Erithacus Software).

| Compound | IC50 (Ramos cells) | IC50 (BTK kinase) |
| --- | --- | --- |
| C=CC(=O)N1CC[C@@H](n2nc(-c3ccc(Oc4ccccc4)cc3)c(C(N)=O)c2N)C1 [25 (R-isomer)] | < 100 nM | < 100 nM |
| C=CC(=O)N1CC[C@H](n2nc(-c3ccc(Oc4ccccc4)cc3)c(C(N)=O)c2N)C1 [25 (S-isomer)] | < 100 nM | < 100 nM |
| C=CS(=O)(=O)N1CCC[C@@H](n2nc(-c3ccc(Oc4ccccc4)cc3)c(C(N)=O)c2N)C1 [27 (R-isomer)] | < 100 nM | < 100 nM |
| C=CC(=O)N1CCCC(n2nc(-c3ccc(Oc4ccccc4)cc3)c(C(N)=O)c2NC)C1 (stereo not shown) [Example 1, 1-(1-acryloylpiperidin-3-yl)-5-(methylamino)-3-(4-phenoxyphenyl)-1H-pyrazole-4-carboxamide] | < 100 nM | < 100 nM |
| C=CC(=O)N1CCC[C@@H](n2nc(-c3ccc(Oc4ccccc4)cc3)c(C(N)=O)c2NC)C1 [Example 2, (R)-1-(1-acryloylpiperidin-3-yl)-5-(methylamino)-3-(4-phenoxyphenyl)-1H-pyrazole-4-carboxamide] | < 100 nM | < 100 nM |
| C=CC(=O)N1CCCC(n2nc(-c3ccc(Oc4ccccc4)cc3)c(C(N)=O)c2NCC)C1 (stereo not shown) [Example 6, 1-(1-acryloylpiperidin-3-yl)-5-(ethylamino)-3-(4-phenoxyphenyl)-1H-pyrazole-4-carboxamide] | < 100 nM | < 100 nM |
| C=CC(=O)N1CCCC(n2nc(-c3ccc(Oc4ccccc4)cc3)c(C(N)=O)c2NCCN2CCOCC2)C1 (stereo not shown) [Example 13, 1-(1-acryloylpiperidin-3-yl)-5-(2-morpholinoethylamino)-3-(4-phenoxy-phenyl)-1H-pyrazole-4-carboxamide] | < 100 nM | < 100 nM |
| C=CC(=O)N1CCCC(n2nc(-c3ccc(Oc4ccccc4)cc3)c(C(N)=O)c2NCCN2CCN(C)CC2)C1 (stereo not shown) [Example 15, 1-(1-acryloylpiperidin-3-yl)-5-(2-(4-methylpiperazin-1-yl)ethylamino)-3-(4-phenoxy-phenyl)-1H-pyrazole-4-carboxamide] | < 100 nM | < 100 nM |
| C=CC(=O)N1CCC[C@@H](n2nc(-c3ccc(Oc4ccccc4)cc3)c(C(N)=O)c2N)C1 [Example 18, (R)-1-(1-acryloylpiperidin-3-yl)-5-amino-3-(4-phenoxyphenyl)-1H-pyrazole-4-carboxamide] | < 100 nM | – |
| NC(=O)c1c(-c2ccc(Oc3ccccc3)cc2)nn(C2CCCCC2)c1N [Example 20, 5-amino-1-cyclohexyl-3-(4-phenoxyphenyl)-1H-pyrazole-4-carboxamide] | < 100 nM | < 100 nM |
| C=CC(=O)N1CCCC(n2nc(-c3ccc(Oc4ccccc4)cc3)c(C(N)=O)c2N)C1 (stereo not shown) [Example 22, 1-(1-acryloylpiperidin-3-yl)-5-amino-3-(4-phenoxyphenyl)-1H-pyrazole-4-carboxamide] | < 100 nM | – |
| C=CC(=O)N1CCC[C@H](n2nc(-c3ccc(Oc4ccccc4)cc3)c(C(N)=O)c2N)C1 [Example 23, (S)-1-(1-acryloylpiperidin-3-yl)-5-amino-3-(4-phenoxyphenyl)-1H-pyrazole-4-carboxamide] | < 100 nM | – |
| C=CC(=O)N1CCC(n2nc(-c3ccc(Oc4ccccc4)cc3)c(C(N)=O)c2N)CC1 [Example 24, 1-(1-acryloylpiperidin-4-yl)-5-amino-3-(4-phenoxyphenyl)-1H-pyrazole-4-carboxamide] | < 100 nM | < 100 nM |
| C=CC(=O)N1CCC(n2nc(-c3ccc(Oc4ccccc4)cc3)c(C(N)=O)c2N)C1 (stereo not shown) [Example 25, 1-(1-acryloylpyrrolidin-3-yl)-5-amino-3-(4-phenoxyphenyl)-1H-pyrazole-4-carboxamide] | < 100 nM | < 100 nM |
| C#CC(=O)N1CCCC(n2nc(-c3ccc(Oc4ccccc4)cc3)c(C(N)=O)c2N)C1 (stereo not shown) [Example 26, 5-amino-3-(4-phenoxyphenyl)-1-(1-propioloylpiperidin-3-yl)-1H-pyrazole-4-carboxamide] | < 100 nM | < 100 nM |
| C=CS(=O)(=O)N1CCCC(n2nc(-c3ccc(Oc4ccccc4)cc3)c(C(N)=O)c2N)C1 (stereo not shown) [Example 27, 5-amino-3-(4-phenoxyphenyl)-1-(1-(vinylsulfonyl)piperidin-3-yl)-1H-pyrazole-4-carboxamide] | < 100 nM | < 100 nM |

| Compound | IC50 (Ramos cells) | IC50 (BTK kinase) |
| --- | --- | --- |
| NC(=O)c1c(-c2ccc(Oc3ccccc3)cc2)nn(C2CCCN(C(=O)CCl)C2)c1N (stereo not shown) [Example 28, 5-amino-1-(1-(2-chloroacetyl)piperidin-3-yl)-3-(4-phenoxyphenyl)-1H-pyrazole-4-carboxamide] | < 100 nM | < 100 nM |
| CN(C)C/C=C/C(=O)N1CCCC(n2nc(-c3ccc(Oc4ccccc4)cc3)c(C(N)=O)c2N)C1 (stereo not shown) [Example 29, (E)-5-amino-1-(1-(4-(dimethylamino)but-2-enoyl)piperidin-3-yl)-3-(4-phenoxyphenyl)-1H-pyrazole-4-carboxamide] | < 100 nM | < 100 nM |
| C=CC(=O)N(C)CCn1nc(-c2ccc(Oc3ccccc3)cc2)c(C(N)=O)c1N [Example 30, 5-amino-1-(2-(N-methylacrylamido)ethyl)-3-(4-phenoxyphenyl)-1H-pyrazole-4-carboxamide] | < 100 nM | < 100 nM |
| C=CC(=O)NCCn1nc(-c2ccc(Oc3ccccc3)cc2)c(C(N)=O)c1N [Example 31, 1-(2-acrylamidoethyl)-5-amino-3-(4-phenoxyphenyl)-1H-pyrazole-4-carboxamide] | < 100 nM | < 100 nM |
| C#CC(=O)N(C)CCn1nc(-c2ccc(Oc3ccccc3)cc2)c(C(N)=O)c1N [Example 32, 5-amino-1-(2-(N-methylpropiolamido)ethyl)-3-(4-phenoxyphenyl)-1H-pyrazole-4-carboxamide] | < 100 nM | < 100 nM |
| C=CS(=O)(=O)N(C)CCn1nc(-c2ccc(Oc3ccccc3)cc2)c(C(N)=O)c1N [Example 33, 5-amino-1-(2-(N-methylvinylsulfonamido)ethyl)-3-(4-phenoxyphenyl)-1H-pyrazole-4-carboxamide] | < 100 nM | < 100 nM |
| CN(CCn1nc(-c2ccc(Oc3ccccc3)cc2)c(C(N)=O)c1N)C(=O)CCl [Example 34, 5-amino-1-(2-(2-chloro-N-methylacetamido)ethyl)-3-(4-phenoxyphenyl)-1H-pyrazole-4-carboxamide] | < 100 nM | < 100 nM |
| CN(C)C/C=C/C(=O)N(C)CCn1nc(-c2ccc(Oc3ccccc3)cc2)c(C(N)=O)c1N [Example 35, (E)-5-amino-1-(2-(4-(dimethylamino)-N-methylbut-2-enamido)ethyl)-3-(4-phenoxyphenyl)-1H-pyrazole-4-carboxamide] | < 100 nM | < 100 nM |
| C=CC(=O)N1CCCC(n2nc(-c3ccc(Oc4ccccc4)cc3)c(C(N)=S)c2N)C1 (stereo not shown) [Example 37, 1-(1-acryloylpiperidin-3-yl)-5-amino-3-(4-phenoxyphenyl)-1H-pyrazole-4-carbothioamide] | < 100 nM | < 100 nM |
| C=CC(=O)N1CC[C@@H](n2nc(-c3ccc(Oc4cc(F)cc(F)c4)cc3)c(C(N)=O)c2N)C1 [Example 41, (R)-1-(1-acryloylpyrrolidin-3-yl)-5-amino-3-(4-(3,5-difluorophenoxyl)phenyl)-1H-pyrazole-4-carboxamide] | < 100 nM | < 100 nM |
| C=CC(=O)N1CC[C@@H](n2nc(-c3ccc(Oc4cccc(OC)c4)cc3)c(C(N)=O)c2N)C1 [Example 42, (R)-1-(1-acryloylpyrrolidin-3-yl)-5-amino-3-(4-(3-methoxyphenoxyl)phenyl)-1H-pyrazole-4-carboxamide] | < 100 nM | < 100 nM |
| C=CC(=O)N1CC[C@@H](n2nc(-c3ccc(Oc4ccc(Cl)cc4)cc3)c(C(N)=O)c2N)C1 [Example 43, (R)-1-(1-acryloylpyrrolidin-3-yl)-5-amino-3-(4-(4-chlorophenoxyl)phenyl)-1H-pyrazole-4-carboxamide] | < 100 nM | < 100 nM |
| C=CC(=O)N1CC[C@@H](n2nc(-c3ccc(Oc4cccc(C(F)(F)F)c4)cc3)c(C(N)=O)c2N)C1 [Example 44, (R)-1-(1-acryloylpyrrolidin-3-yl)-5-amino-3-(4-(3-(trifluoromethyl)phenoxy)phenyl)-1H-pyrazole-4-carboxamide] | < 100 nM | < 100 nM |
| C=CC(=O)N1CC[C@@H](n2nc(-c3ccc(Oc4ccccc4Cl)cc3)c(C(N)=O)c2N)C1 [Example 45, (R)-1-(1-acryloylpyrrolidin-3-yl)-5-amino-3-(4-(2-chlorophenoxyl)phenyl)-1H-pyrazole-4-carboxamide] | < 100 nM | < 100 nM |
| C=CC(=O)N1CC[C@@H](n2nc(-c3ccc(Oc4ccc(OC)cc4)cc3)c(C(N)=O)c2N)C1 [Example 46, (R)-1-(1-acryloylpyrrolidin-3-yl)-5-amino-3-(4-(4-methoxyphenoxyl)phenyl)-1H-pyrazole-4-carboxamide] | < 100 nM | < 100 nM |
| C=CC(=O)N1CC[C@@H](n2nc(-c3ccc(Oc4cc([N+](=O)[O-])ccc4C)cc3)c(C(N)=O)c2N)C1 [Example 47, (R)-1-(1-acryloylpyrrolidin-3-yl)-5-amino-3-(4-(2-methyl-5-nitrophenoxy)phenyl)-1H-pyrazole-4-carboxamide] | < 100 nM | < 100 nM |
